The text below walks through data of US9545418B2, “ON01910.Na enhances chemotherapeutic agent activity in drug-resistant tumors” (THE JOHNS HOPKINS UNIVERSITY, priority 2008, dated 2017).

In series [1] the test system is Tumor JH03 (pancreatic tumor). Kind of series: Direct pancreatic cancer derived xenograft, Tumor JH03. Type of series: in vivo, mice. The settings on record: Gemcitabine 100 mg/kg 2 times/week for 4 weeks, ON-01910.Na 250 mg/kg/day for 4 weeks. An excerpt: (§1) Resected pancreatic adenocarcinomas are routinely implanted in nude mice at the Johns Hopkins Medical Institutions as a method to obtain enriched populations of neoplastic cells under an IRB-approved protocol from residual pancreatic cancer tumors. Briefly, tumor specimens from Whipple resection specimens were divided into 2-3 mm^3 pieces in antibiotic-containing RPMI media. Pieces of non-necrotic tissue were selected and immersed in Matrigel. Under anesthesia with isofluorane, tumors were implanted into five-to-six week-old female athymic (nu/nu) mice purchased from Harlan (Harlan Laboratories, Washington, D.C.). […] Tumor size was determined using calipers every four days for the course of the experiment. Relative tumor growth inhibition (TGI) was calculated as TGI=(Ti−T0/Ci−C0), where Ti and Ci represent tumor size in the treated and control group at 28-day, respectively; […] Experiments were terminated on day 28. […] Pancreatic tumors were implanted in mice as detailed above. Mice were treated with gemcitabine alone, ON-01910-Na alone, or a combination thereof as indicated. Tumor size was measured at four day intervals.

Series [2] has as its system Tumor 28 (pancreatic tumor). Kind of series: Direct pancreatic cancer derived xenograft, Tumor 28. The settings on record: Gemcitabine 100 mg/kg 2 times/week for 4 weeks, ON-01910.Na 250 mg/kg/day for 4 weeks. Format: in vivo, mice.
Source text: as §1

The test system of series [3] is Tumor 41 (pancreatic tumor). The series is described as follows: Direct pancreatic cancer derived xenograft, Tumor 41. Format: in vivo, mice. The settings on record: Gemcitabine 100 mg/kg 2 times/week for 4 weeks, ON-01910.Na 250 mg/kg/day for 4 weeks.
Source text: as §1

Another series concerns Plk1. The series is described as follows: Plk1 expression analysis by RT-PCR in xenograft tumors harvested on day 28. Format: in vivo, mice. Conditions: JH03 tumor, day 28, compared with the other tumors. An excerpt:
Total RNA was extracted from cell pellets (and tumors) using the RNeasy™ Mini Kit (Qiagen, Valencia, Calif.). cDNA was synthesized using iScript cDNA synthesis kit (Bio-Rad, Hercules, Calif.) following the manufacturer's instructions. Relative quantification of Plk1 and ubiquitin C (UBC, used as housekeeper gene) mRNA was achieved using an iCycler iQ real-time PCR detection system (Bio-Rad) using ABI Taqman probes (Foster City, Calif.). The experiments were repeated twice and samples were run in quadruplicate.
On day 28, animals were euthanized and tumors were removed for Plk1 expression analysis by RT-PCR using standard protocols. Plk1 expression levels were expressed relative to expression in non-drug treated control.
On day 28, tumors were harvested and analyzed for Plk1 expression (FIG. 2C).

The subject of series [4] is Solid tumors including prostate, breast, and lung. Conditions: oral; cited from earlier work.

Consider `Nc1ccn(C2OC(CO)C(O)C2(F)F)c(=O)n1` (centres unmarked) [gemcitabine, 4-amino-1-[3,3-difluoro-4-hydroxy-5-(hydroxymethyl)tetrahydrofuran-2-yl]-1H-pyrimidin-2-one], for which the “susceptibility of tumor to treatment (tumor growth)” value was “susceptible” in series [1], “resistant” in series [2] and “susceptible” in series [3]. For the same compound, the “Plk1 expression in tumor after exposure” value with Plk1 was “lowest expression of Plk1”.

With `CCCCCCCCCCCCCCCC(=O)Nc1ccn([C@@H]2O[C@H](CO)[C@@H](O)[C@@H]2C#N)c(=O)n1` [sapacitabine], in series [4], the maximum tolerated dose result is given as “dose 160 mg/m^2/day”.
